Experimental data: patent US20240335462A1, “SULFUR/PHOSPHORUS-CONTAINING ARYL COMPOUND AND APPLICATION THEREOF” (MEDSHINE DISCOVERY INC., priority 2021, published 2024)

How the values were obtained:
[1] = tested on: TYK2 signaling pathway (IFN-α/pSTAT1); test: IFN-α-stimulated pSTAT1 in human PBMC (flow cytometry); type: cell-based; conditions: CD4-positive cells
Method: (§1) The purpose of this experiment was to detect the inhibitory effect of the compounds on cytokine-activated JAK-STAT signaling pathways in human peripheral blood mononuclear cells (PBMC).
(§2) • a) PBMCs frozen in liquid nitrogen were thawed in a 37° C. water bath, and culture medium was added. The mixture was then centrifuged at 320 g for 3 minutes. • b) Cells were resuspended in culture medium, counted, and the cell concentration was adjusted to 5×10^5 cells/mL with culture medium. Subsequently, the cell suspension was inoculated into […] 96-well round-bottom plates, with 200 μL per well. The plates were incubated at 37° C. with 5% CO2 for 90 minutes. • c) Different concentrations of the test compound (starting at 2 μM, 5-fold serial dilution, a total of 8 concentrations) were added, followed by incubation at 37° C. with 5% CO2 for 30 minutes. • d) IL-6 (final concentration at 20 ng/mL) was added to the first round-bottom plate and incubated at 37° C. with 5% CO2 for 15 minutes. • e) IFNα (final concentration at 1000 U/mL) was added to the second round-bottom plate and incubated at 37° C. with 5% CO2 for 15 minutes. • f) IL-2 (final concentration at 4 ng/mL) was added to the third round-bottom plate and incubated at 37° C. with 5% CO2 for 15 minutes. • g) GM-CSF (final concentration at […]) was added to the fourth round-bottom plate and incubated at 37° C. with 5% CO2 for 15 minutes. • h) Cells were centrifuged at 320 g for 3 minutes, and each well was washed once with 200 μL of staining solution. • i) 50 μL of staining solution containing human CD33 antibody was added to each well of the GM-CSF-stimulated culture plate, and 50 μL of staining solution containing CD4 antibody was added to the remaining three culture plates. The staining was performed at 4° C. for 30 minutes. The cells were washed twice with the staining solution. • j) 100 μL of fixation buffer was added to each well, and the cells were fixed at 4° C. for 15 minutes. The cells were washed once with the staining solution. • k) 100 μL of permeabilization buffer was added to each well, and the cells were permeabilized at 4° C. for 20 minutes. The cells were washed twice with the staining solution. • l) 50 μL of staining solution containing human pSTAT1 antibody was added to each well of the IL-6 and IFN-α-stimulated culture plates, and 50 μL of staining solution containing human pSTAT5 antibody was added to each well of the IL-2 and GM-CSF-stimulated culture plates. The staining was performed at room temperature for 15 minutes. The cells were washed twice with the staining solution. • m) The cells were resuspended in 150 μL of staining solution. • n) The fluorescence intensity of pSTAT1 (stimulated by IL-6 and IFN-α) or pSTAT5 (stimulated by IL-2) in CD4-positive cells was detected using flow cytometer. The fluorescence intensity of pSTAT5 (stimulated by GM-CSF) in CD33-positive cells was also detected.
(§3) Data analysis was performed using Flowjo software to determine the IC50 of the compounds.

[2] = target: Ba/F3-FL-TYK2-E957D cells (Homo sapiens, UniProt P29597, E957D, cells depend on it); test: Proliferation of Ba/F3-FL-TYK2-E957D cells (CellTiter-Glo); type: cell-based, mouse; conditions: 72 hours, read-out: Half maximal inhibitory concentration IC50 for cells Ba/F3-FL-TYK2-E957D
Sequence of Ba/F3-FL-TYK2-E957D cells (P29597 whole entry E957D): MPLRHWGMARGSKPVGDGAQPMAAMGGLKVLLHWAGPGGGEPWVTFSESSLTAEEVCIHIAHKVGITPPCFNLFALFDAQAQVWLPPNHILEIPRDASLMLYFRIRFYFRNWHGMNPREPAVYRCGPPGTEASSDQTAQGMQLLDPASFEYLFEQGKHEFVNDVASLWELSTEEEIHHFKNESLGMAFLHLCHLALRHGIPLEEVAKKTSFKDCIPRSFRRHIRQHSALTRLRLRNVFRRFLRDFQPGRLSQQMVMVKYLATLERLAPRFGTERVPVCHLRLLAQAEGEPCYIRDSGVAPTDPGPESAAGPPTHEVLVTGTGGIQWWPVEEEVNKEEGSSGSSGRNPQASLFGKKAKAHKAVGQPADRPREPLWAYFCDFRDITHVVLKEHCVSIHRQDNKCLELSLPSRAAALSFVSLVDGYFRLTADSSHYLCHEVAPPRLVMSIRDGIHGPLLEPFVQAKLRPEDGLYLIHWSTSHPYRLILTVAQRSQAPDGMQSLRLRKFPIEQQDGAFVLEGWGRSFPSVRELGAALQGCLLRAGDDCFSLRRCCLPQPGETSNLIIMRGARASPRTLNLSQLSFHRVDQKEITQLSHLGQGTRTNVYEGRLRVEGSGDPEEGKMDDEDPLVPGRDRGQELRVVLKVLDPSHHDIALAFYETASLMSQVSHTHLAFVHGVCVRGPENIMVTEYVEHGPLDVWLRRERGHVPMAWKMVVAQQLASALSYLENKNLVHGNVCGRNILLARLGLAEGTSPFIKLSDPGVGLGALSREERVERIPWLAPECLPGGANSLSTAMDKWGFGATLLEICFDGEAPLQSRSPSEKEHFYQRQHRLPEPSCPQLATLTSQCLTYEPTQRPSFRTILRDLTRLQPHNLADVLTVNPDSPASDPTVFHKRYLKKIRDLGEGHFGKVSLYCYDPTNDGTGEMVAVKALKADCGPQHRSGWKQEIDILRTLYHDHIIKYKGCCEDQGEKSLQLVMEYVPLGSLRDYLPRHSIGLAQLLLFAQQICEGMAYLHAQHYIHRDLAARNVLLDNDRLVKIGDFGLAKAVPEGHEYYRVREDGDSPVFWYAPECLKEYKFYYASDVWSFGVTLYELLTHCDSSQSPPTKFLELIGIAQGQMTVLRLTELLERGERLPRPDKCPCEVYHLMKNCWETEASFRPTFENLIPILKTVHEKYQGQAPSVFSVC
In short: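 Ba/F3 cells stably expressing human full-length TYK2-E957D (JH1+JH2) or TEL-TYK2 (JH1 only) were plated at 2000 cells/well with 9-point 3-fold compound dilutions (0.1% DMSO) for 72 h at 37° C. Viable cells were measured by CellTiter-Glo luminescence; IC50 came from nonlinear S-curve fits.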

[3] = tested on: JAK1/2 signaling pathway (IL-6/pSTAT1); test: IL-6-stimulated pSTAT1 in human PBMC (flow cytometry); type: cell-based; conditions: CD4-positive cells
Method: as §1, §2, §3

Compound	IC50 [1] [nM]	GI50 [2] [nM]	IC50 [3] [nM]
CNC(=O)c1cnc(NC(=O)C2CC2)cc1Nc1cccc(-c2ccc(S(=O)(=O)C(C)C)cn2)c1OC.Cl [Hydrochloride of WX-020]	1.3	1.5	164
CNC(=O)c1cnc(NC(=O)C2CC2)cc1Nc1cccc(-c2ncc(S(=O)(=O)C(C)C)cn2)c1OC [WX-019]	1.5	2	99.7
CNC(=O)c1nnc(NC(=O)C2CC2)cc1Nc1cccc(-c2ncc(S(=N)(=O)C(C)C)cn2)c1OC (single isomer, unassigned) [WX-011B]	2.4	3.3	72.5
CNC(=O)c1nnc(NC(=O)C2CC2)cc1Nc1cccc(-c2ccc(P(=O)(C3CC3)C3CC3)cn2)c1OC [WX-021]	2.1	2.5	63.4
CNC(=O)c1nnc(NC(=O)C2CC2)cc1Nc1cccc(-c2ccc(S(=N)(=O)C(C)C)cn2)c1OC (single isomer, unassigned) [WX-012A]	2	3.3	52.4
CNC(=O)c1nnc(NC(=O)C2CC2)cc1Nc1cccc(-c2ncc(S(=N)(=O)C(C)C)cn2)c1OC (single isomer, unassigned) [WX-011A]	2.6	5.3	87
CNC(=O)c1nnc(NC(=O)C2CC2)cc1Nc1cccc(-c2ccc(S(=N)(=O)C(C)C)cn2)c1OC (single isomer, unassigned) [WX-012B]	1.5	2.4	32.5
